Results published in patent US20220143081A1, “SYSTEM AND METHOD OF TREATING INFLAMMATORY LUNG DISEASES” (priority 2020, published 2022).

Key:
[1] = system: monocytes, macrophages and lymphocytes; test: In vitro experiments in monocytes, macrophages and lymphocytes; type: cell-based
SARS-CoV-2 [2] = type: cell-based; conditions: commercially available nasal spray tested at 5-fold dilution
[3] = system: PBMCs isolated from normal donors; test: Gene expression in PBMCs by quantitative RT-PCR (Light Cycler System); type: cell-based, human
[4] = Humoral and cellular immunity (Jerne plaque and footpad swelling tests); type: in vivo
HIV = type: cell-based; conditions: in vitro
[5] = Blood cell effects in rats, including total body X-irradiation; type: in vivo
[6] = Human wound healing model (skin blister); type: in vivo
[7] = system: radiation-induced, chemical-induced and metastatic malignant and benign tumors; test: Antitumor effects against induced and metastatic tumors; type: in vivo
SARS-CoV-2 [8] = type: cell-based

Substance: tetrachlorodecaoxide [TCDO]
- antigen presentation [1]: decrease antigen presentation
- macrophage tumor necrosis factor (TNF) expression [1]: decrease macrophage tumor necrosis factor (TNF) expression
- macrophage-fibroblast cooperation [1]: enhance macrophage-fibroblast cooperation
- oxidative burst in monocytes [1]: stimulate an oxidative burst in monocytes
- phagocytosis [1]: increase phagocytosis
- inhibition of viral propagation (SARS-CoV-2 [2]): highly potent
- CD14 cell (macrophage) inflammatory gene expression [3]: short-term upregulation
- inducible gene expression related to macrophage dependent T-cell activation (IL-2, IL-4, IL-17) [3]: notable inhibition
- humoral and cellular immune responses ([4]; Jerne plaque and footpad swelling tests): increased both the humoral and cellular immune responses
- proportions of T-helper and T-suppressor/cytotoxic cells ([4]; spleen and thymus): altered proportions of T-helper and T-suppressor/cytotoxic cells
- anti-HIV properties (HIV): displayed anti-HIV properties
- proportion of granulocytes, PBMCs and LGLs [5]: increased the proportion of granulocytes, peripheral blood monocytes (PBMCs) and large granular lymphocytes (LGLs)
- erythropoiesis ([5]; after total body X-irradiation): stimulated erythropoiesis
- number of macrophages infiltrating the skin blister [6]: increased the number of macrophages infiltrating the skin blister
- direct antitumor effects [7]: displayed direct antitumor effects
- cytopathic effect and SARS-CoV-2 infection of Vero E6 cells (SARS-CoV-2 [8]): significantly reduced
